Measured values from patent publication US20120129953A1, “TINGLING AND SALIVATING COMPOSITIONS” (FIRMENICH SA, priority 2006, published 2012).

Experiment: Blind test panel evaluation of sugar-free hard-boiled candies by trained evaluators
Format: in vivo
Details: hard-boiled candy
Experimental: The composition above was then used to prepare sugar-free hard-boiled candies, as follows: Isomalt (100 g) and water (30 g) were mixed and heated to 160° C. in a copper pan. At 160° C., the copper pan was removed from the heat and placed in a warm water bath (40° C.). When the temperature reached 135° C., aspartame, acesulfame-K, the liquid acidulant mixture (1.0%) and flavor were added. The cooked mass was poured at ambient temperature into appropriate Teflon® molds.
The following Table I summarizes the ingredients and respective dosages used in the preparation as described here above of a control hard-boiled candy according to the prior art and containing only citric acid as acidulant and a candy prepared according to the invention.
The Control candy and the Invention Candy were then evaluated by a panel of trained evaluators, on a blind test, and the results of this evaluation are shown in FIG. 1.

SMILES: O=C(O)CC(O)(CC(=O)O)C(=O)O [Citric acid]
- impact and sourness: deliver the expected effect
